# Earlier results in US8318452B2, “Solid culture medium for the detection and/or the species discrimination of glycopeptide-resistant enterococci” (priority 2006, dated 2012).
# Experiments:
# [1] = tested on: VanB type glycopeptide-resistant enterococci; conditions: Type of glycopeptide resistance VanB
# [2] = tested on: VanC type glycopeptide-resistant enterococci; conditions: Type of glycopeptide resistance VanC
substance,measurement,setting,value
teicoplanin,MIC,[1],0.5 to 1 µg/mL
same,MIC,[2],0.5 to 1 µg/mL
